Test results from patent publication US11318137B2, “Quinazoline compounds as modulators of Ras signaling” (VANDERBILT UNIVERSITY, priority 2017, dated 2022).

Biological target: T1, SOS-mediated nucleotide exchange on Ras (Homo sapiens, UniProt Q07889)
T1 sequence (Q07889 1-1333): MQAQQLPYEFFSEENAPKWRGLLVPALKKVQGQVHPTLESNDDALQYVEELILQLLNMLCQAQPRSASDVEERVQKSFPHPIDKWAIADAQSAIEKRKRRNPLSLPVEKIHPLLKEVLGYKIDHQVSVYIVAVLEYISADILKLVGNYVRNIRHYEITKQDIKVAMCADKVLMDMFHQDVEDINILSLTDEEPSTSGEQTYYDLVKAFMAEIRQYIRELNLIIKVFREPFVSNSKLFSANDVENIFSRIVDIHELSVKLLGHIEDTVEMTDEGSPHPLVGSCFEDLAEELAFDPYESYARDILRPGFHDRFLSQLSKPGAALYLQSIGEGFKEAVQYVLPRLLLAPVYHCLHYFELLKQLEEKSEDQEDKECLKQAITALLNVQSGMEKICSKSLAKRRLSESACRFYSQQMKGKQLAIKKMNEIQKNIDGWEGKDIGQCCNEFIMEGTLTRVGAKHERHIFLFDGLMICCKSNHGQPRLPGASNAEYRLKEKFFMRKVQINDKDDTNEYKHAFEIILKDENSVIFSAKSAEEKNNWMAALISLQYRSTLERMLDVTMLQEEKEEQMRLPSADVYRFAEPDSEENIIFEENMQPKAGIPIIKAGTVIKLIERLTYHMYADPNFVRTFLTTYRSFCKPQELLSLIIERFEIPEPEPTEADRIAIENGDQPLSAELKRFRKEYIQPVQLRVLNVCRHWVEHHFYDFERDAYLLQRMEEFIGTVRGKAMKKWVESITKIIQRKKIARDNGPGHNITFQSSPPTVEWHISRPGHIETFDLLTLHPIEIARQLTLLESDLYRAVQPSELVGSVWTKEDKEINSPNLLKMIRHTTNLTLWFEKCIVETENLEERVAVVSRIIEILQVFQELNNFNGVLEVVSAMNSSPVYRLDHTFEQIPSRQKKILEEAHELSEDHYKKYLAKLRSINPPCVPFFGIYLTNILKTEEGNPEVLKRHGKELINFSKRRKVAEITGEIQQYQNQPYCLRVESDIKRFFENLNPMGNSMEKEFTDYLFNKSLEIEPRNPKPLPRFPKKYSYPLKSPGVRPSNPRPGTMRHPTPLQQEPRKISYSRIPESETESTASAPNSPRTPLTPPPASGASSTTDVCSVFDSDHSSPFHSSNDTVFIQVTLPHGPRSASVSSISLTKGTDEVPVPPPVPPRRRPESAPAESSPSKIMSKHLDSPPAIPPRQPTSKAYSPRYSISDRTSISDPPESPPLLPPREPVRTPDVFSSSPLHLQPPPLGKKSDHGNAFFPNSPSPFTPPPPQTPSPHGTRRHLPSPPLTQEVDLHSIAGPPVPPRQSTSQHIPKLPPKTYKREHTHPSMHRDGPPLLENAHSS
Experiment: SOS-mediated nucleotide exchange on Ras (BODIPY-GDP fluorescence)
Assay type: biochemical
Conditions: Ras loaded with BODIPY-GDP, GTP and SOS added; EC50 from derived exchange rates
Method: A. SOS-Mediated Nucleotide Exchange on Ras
Compounds of the present invention were tested for their ability to modify the rate at which Ras exchanges a labeled nucleotide guanosine diphosphate (GDP) analog for guanosine triphosphate (GTP). Briefly, test compounds, then GTP and the Ras GEF SOS (Son of Sevenless) are added to a buffered solution containing Ras protein loaded with BODIPY-GDP. Changes in fluorescence indicating exchange of the labeled GDP for GTP are monitored over time. Raw fluorescence data was fit to a single exponential decay function and derived rates were plotted as mean values. EC50 values were calculated by plotting mean derived rates as a function of compound concentration and fit using a four-parameter dose-response curve. Full assay details are disclosed in: Burns, M. C.; Sun, Q.; Daniels, R. N.; Camper, D. V.; Kennedy, J. P.; Phan, J.; Olejniczak, E. O.; Lee, T.; Waterson, A. G.; Rossanese, O. W.; Fesik, S. W. “Approach for targeting Ras with small molecules that activate SOS-mediated nucleotide exchange” Proc. Natl. Acad. Sci. 2014; 11(9): 3401-3406. PMCID: PMC3948241.

Row | EC50 | SMILES
1 | 1 to 5 µM | Cc1cc(F)cc(Nc2nc(N[C@H](C)C(C)(C)C)c3cccc(CCN)c3n2)c1 [Example 83, (R)-8-(2-aminoethyl)-N^4-(3,3-dimethylbutan-2-yl)-N^2-(3-fluoro-5-methylphenyl)quinazoline-2,4-diamine]
2 | 1 to 5 µM | Cc1cc(F)cc(Nc2nc(N[C@H](C)C(C)(C)C)c3cccc(C4=CCNCC4)c3n2)c1 [Example 80, (R)—N^4-(3,3-dimethylbutan-2-yl)-N^2-(3-fluoro-5-methylphenyl)-8-(1,2,3,6-tetrahydropyridin-4-yl)quinazoline-2,4-diamine]
3 | 1 to 5 µM | C[C@@H](Nc1nc(Nc2cc(F)cc(F)c2)nc2ccccc12)C(C)(C)C [Example 41, (R)—N^2-(3,5-difluorophenyl)-N^4-(3,3-dimethylbutan-2-yl)quinazoline-2,4-diamine]
4 | > 30 µM | C[C@@H](Nc1nc(Nc2ccc(F)c(Cl)c2)nc2c(Br)cccc12)C1CC1 [Example 46, (R)-8-bromo-N^2-(3-chloro-4-fluorophenyl)-N-(1-cyclopropylethyl)quinazoline-2,4-diamine]
5 | 5 to 30 µM | C[C@@H](Nc1nc(NCc2cccc(Cl)c2F)nc2c(C3=CCNCC3)cccc12)C(C)(C)C [Example 129, (R)—N^2-(3-chloro-2-fluorobenzyl)-N^4-(3,3-dimethylbutan-2-yl)-8-(1,2,3,6-tetrahydropyridin-4-yl)quinazoline-2,4-diamine]
6 | 1 to 5 µM | CCC(CC)CNc1nc(Nc2ccc(F)c(Cl)c2)nc2ccccc12 [Example 31, N^2-(3-chloro-4-fluorophenyl)-N^4-(2-ethylbutyl)quinazoline-2,4-diamine]
7 | > 30 µM | CC[C@@H](Nc1nc(Nc2ccc(F)c(Cl)c2)nc2ccccc12)C1CCCC1 [Example 44, (R)—N^2-(3-chloro-4-fluorophenyl)-N^4-(1-cyclopentylpropyl)quinazoline-2,4-diamine]
8 | > 30 µM | c1coc(CNc2nc(Nc3ccc4[nH]nnc4c3)nc3ccccc23)c1 [Example 11, N^2-(1H-benzo [d][1,2,3]triazol-5-yl)-N^4-(furan-2-ylmethyl)quinazoline-2,4-diamine]
9 | 5 to 30 µM | c1coc(CNc2nc(Nc3ccc4c(c3)CCC4)nc3ccccc23)c1 [Example 10, N^2-(2,3-dihydro-1H-inden-5-yl)-N^4-(furan-2-ylmethyl)quinazoline-2,4-diamine]
10 | 5 to 30 µM | Oc1cccc(Nc2nc(NCc3cccs3)c3ccccc3n2)c1 [Example 13, 3-((4-((thiophen-2-ylmethyl)amino)quinazolin-2-yl)amino)phenol]
11 | 1 to 5 µM | C[C@@H](Nc1nc(NCC2CCCCC2)nc2c(CN)cccc12)c1cccs1 [Example 96, (R)-8-(aminomethyl)-N^2-(cyclohexylmethyl)-N^4-(1-(thiophen-2-yl)ethyl)quinazoline-2,4-diamine]
12 | 5 to 30 µM | c1ccc2c(NCC3CC3)nc(NCC3CCC3)nc2c1 [Example 17, N^2-(cyclobutylmethyl)-N^4-(cyclopropylmethyl)quinazoline-2,4-diamine]
13 | > 30 µM | Fc1ccc(Nc2nc(N[C@@H](C3CC3)C(F)(F)F)c3ccccc3n2)cc1Cl [Example 45, (S)—N^2-(3-chloro-4-fluorophenyl)-N^4-(1-cyclopropyl-2,2,2-trifluoroethyl)quinazoline-2,4-diamine]
14 | > 30 µM | c1ccc2c(NCC3CC3)nc(NCC3CCCO3)nc2c1 (stereo not shown) [Example 18, N^4-(cyclopropylmethyl)-N^2-((THF-2-yl)methyl)quinazoline-2,4-diamine]
15 | 1 to 5 µM | C[C@@H](Nc1nc(NCc2cccc(Cl)c2F)nc2ccccc12)C1CC1 [Example 25, (R)—N^2-(3-chloro-2-fluorobenzyl)-N^4-(1-cyclopropylethyl)quinazoline-2,4-diamine]
16 | 1 to 5 µM | C[C@@H](Nc1nc(Nc2ccc(F)c(Cl)c2)nc2c(C3=CCNCC3)cccc12)c1cccs1 [Example 88, (R)—N^2-(3-chloro-4-fluorophenyl)-8-(1,2,3,6-tetrahydropyridin-4-yl)-N^4-(1-(thiophen-2-yl)ethyl)quinazoline-2,4-diamine]

Row | EC50 | SMILES
17 | 5 to 30 µM | C[C@@H](Nc1nc(Nc2ccc(F)c(Cl)c2)nc2c(C3=CCNCC3)cccc12)C(C)(C)C [Example 79, (R)—N^2-(3-chloro-4-fluorophenyl)-N^4-(3,3-dimethylbutan-2-yl)-8-(1,2,3,6-tetrahydropyridin-4-yl)quinazoline-2,4-diamine]
18 | 5 to 30 µM | C[C@@H](Nc1nc(Nc2cc(F)c(F)c(F)c2)nc2ccccc12)C1CC1 [Example 6, (R)—N^4-(1-cyclopropylethyl)-N^2-(3,4,5-trifluorophenyl)quinazoline-2,4-diamine]
19 | 5 to 30 µM | C[C@@H](Nc1nc(NCc2ccccc2F)nc2ccccc12)C1CC1 [Example 29, (R)—N^4-(1-cyclopropylethyl)-N^2-(2-fluorobenzyl)quinazoline-2,4-diamine]
20 | 1 to 5 µM | C[C@@H](Nc1nc(Nc2ccc(F)c(Cl)c2)nc2c(C3CNC3)cccc12)C1CC1 [Example 61, (R)-8-(azetidin-3-yl)-N^2-(3-chloro-4-fluorophenyl)-N^4-(1-cyclopropylethyl)quinazoline-2,4-diamine]
21 | 5 to 30 µM | FC(F)(F)Oc1cccc(Nc2nc(NCc3cccs3)c3ccccc3n2)c1 [Example 7, N^4-(thiophen-2-ylmethyl)-N^2-(3-(trifluoromethoxy)phenyl)quinazoline-2,4-diamine]
22 | 5 to 30 µM | C[C@@H](Nc1nc(Nc2ccc(F)c(Cl)c2F)nc2ccccc12)C1CC1 [Example 30]
23 | 5 to 30 µM | CCC(C)CNc1nc(Nc2ccc(F)c(Cl)c2)nc2ccccc12 (stereo not shown) [Example 16, N^2-(3-chloro-4-fluorophenyl)-N^4-(2-methylbutyl)quinazoline-2,4-diamine]
24 | 5 to 30 µM | FC(F)(F)c1cccc(Nc2nc(NCc3ccco3)c3ccccc3n2)c1 [Example 8, N^44-(furan-2-ylmethyl)-N^2-(3-(trifluoromethyl)phenyl)quinazoline-2,4-diamine]
25 | 1 to 5 µM | Cc1cccc(CNc2nc(N[C@H](C)C3CC3)c3ccccc3n2)c1F [Example 26, (R)—N^4-(1-cyclopropylethyl)-N^2-(2-fluoro-3-methylbenzyl)quinazoline-2,4-diamine]
26 | 5 to 30 µM | COc1cccc(CNc2nc(NCc3ccco3)c3ccccc3n2)c1 [Example 12, N^4-(furan-2-ylmethyl)-N^2-(3-methoxybenzyl)quinazoline-2,4-diamine]
27 | 1 to 5 µM | C[C@@H](Nc1nc(Nc2ccc(F)c(Cl)c2)nc2ccccc12)C1CCCC1 [Example 43, (R)—N^2-(3-chloro-4-fluorophenyl)-N^4-(1-cyclopentylethyl)quinazoline-2,4-diamine]
28 | 5 to 30 µM | c1ccc(CNc2nc(Nc3ccccc3)nc3ccccc23)cc1 [Example 33, N^4-benzyl-N^2-phenylquinazoline-2,4-diamine]
29 | 5 to 30 µM | C[C@@H](Nc1nc(NCc2cccc(C(F)(F)F)c2)nc2ccccc12)C1CC1 [Example 28, (R)—N^4-(1-cyclopropylethyl)-N^2-(3-(trifluoromethyl)benzyl)quinazoline-2,4-diamine]
30 | 1 to 5 µM | CCC(CC)CNc1nc(Nc2ccc(F)c(Cl)c2)nc2c(C#N)cccc12 [Example 99, 2-((3-chloro-4-fluorophenyl)amino)-4-((2-ethylbutyl)amino)quinazoline-8-carbonitrile]
31 | 5 to 30 µM | Cc1ccc(CNc2nc(Nc3ccc(F)c(Cl)c3)nc3ccccc23)o1 [Example 15, N^2-(3-chloro-4-fluorophenyl)-N^4-((5-methylfuran-2-yl)methyl)quinazoline-2,4-diamine]
